Biological target: High affinity nerve growth factor receptor (Homo sapiens, UniProt P04629)
Assay: Biological Assay: TrkA functional activity was measured using a DiscoverX PathHunter assay. In this assay, U2OS cells express the human TrkA receptor as a fusion with the weakly complementing fragment of B-galactosidase, which DiscoverX calls Prolink (PK); additionally, Shc1 is fused with a larger fragment, which is called Enzyme Acceptor (EA). Activation of the TrkA receptor, upon NGF addition, results in the kinase domain being phosphorylated, resulting in subsequent recruitment of Shc1-EA protein. That recruitment results in an active B-galactosidase enzyme that is detected by addition of a chemiluminescent substrate. The human p75NTR protein was also expressed as a co-receptor for NGF.

Chain of High affinity nerve growth factor receptor (P04629 whole entry, the tested form may be a part): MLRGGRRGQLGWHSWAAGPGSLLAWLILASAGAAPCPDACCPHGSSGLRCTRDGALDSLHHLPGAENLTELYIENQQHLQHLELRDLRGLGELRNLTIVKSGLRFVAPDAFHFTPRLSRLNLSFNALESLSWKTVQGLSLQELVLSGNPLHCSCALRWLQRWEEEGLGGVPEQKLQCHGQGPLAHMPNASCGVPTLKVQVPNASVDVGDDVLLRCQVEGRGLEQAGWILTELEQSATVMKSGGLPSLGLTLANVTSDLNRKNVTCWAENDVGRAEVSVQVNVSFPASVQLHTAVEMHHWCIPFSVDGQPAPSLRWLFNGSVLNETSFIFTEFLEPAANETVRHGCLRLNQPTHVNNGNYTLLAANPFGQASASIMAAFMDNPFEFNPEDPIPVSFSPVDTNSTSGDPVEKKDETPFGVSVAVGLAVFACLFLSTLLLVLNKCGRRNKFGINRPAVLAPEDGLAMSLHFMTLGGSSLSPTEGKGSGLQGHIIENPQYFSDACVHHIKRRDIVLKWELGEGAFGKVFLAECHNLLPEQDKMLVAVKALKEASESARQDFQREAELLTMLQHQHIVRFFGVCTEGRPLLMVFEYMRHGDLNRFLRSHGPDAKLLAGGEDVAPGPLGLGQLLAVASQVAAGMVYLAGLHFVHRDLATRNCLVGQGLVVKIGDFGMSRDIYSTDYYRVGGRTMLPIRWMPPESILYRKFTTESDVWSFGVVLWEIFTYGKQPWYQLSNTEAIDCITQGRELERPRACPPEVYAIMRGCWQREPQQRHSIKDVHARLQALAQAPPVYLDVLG

For Cn1ccc(-c2cc(C(=O)Nc3c(-c4ccccc4)ccc4c(C(C)(C)O)ncn34)c(F)cc2C(F)(F)F)n1, the IC50 was 50 nM.
